From patent US10676462B2, “Quinoline derivative” (ONO PHARMACEUTICAL CO., LTD., priority 2013, dated 2020)

Biological target: T1, Axl enzyme (Homo sapiens, UniProt P30530)
T1 construct: a solution containing 400 ng/mL Axl enzyme was prepared
T1 sequence (P30530 26-894): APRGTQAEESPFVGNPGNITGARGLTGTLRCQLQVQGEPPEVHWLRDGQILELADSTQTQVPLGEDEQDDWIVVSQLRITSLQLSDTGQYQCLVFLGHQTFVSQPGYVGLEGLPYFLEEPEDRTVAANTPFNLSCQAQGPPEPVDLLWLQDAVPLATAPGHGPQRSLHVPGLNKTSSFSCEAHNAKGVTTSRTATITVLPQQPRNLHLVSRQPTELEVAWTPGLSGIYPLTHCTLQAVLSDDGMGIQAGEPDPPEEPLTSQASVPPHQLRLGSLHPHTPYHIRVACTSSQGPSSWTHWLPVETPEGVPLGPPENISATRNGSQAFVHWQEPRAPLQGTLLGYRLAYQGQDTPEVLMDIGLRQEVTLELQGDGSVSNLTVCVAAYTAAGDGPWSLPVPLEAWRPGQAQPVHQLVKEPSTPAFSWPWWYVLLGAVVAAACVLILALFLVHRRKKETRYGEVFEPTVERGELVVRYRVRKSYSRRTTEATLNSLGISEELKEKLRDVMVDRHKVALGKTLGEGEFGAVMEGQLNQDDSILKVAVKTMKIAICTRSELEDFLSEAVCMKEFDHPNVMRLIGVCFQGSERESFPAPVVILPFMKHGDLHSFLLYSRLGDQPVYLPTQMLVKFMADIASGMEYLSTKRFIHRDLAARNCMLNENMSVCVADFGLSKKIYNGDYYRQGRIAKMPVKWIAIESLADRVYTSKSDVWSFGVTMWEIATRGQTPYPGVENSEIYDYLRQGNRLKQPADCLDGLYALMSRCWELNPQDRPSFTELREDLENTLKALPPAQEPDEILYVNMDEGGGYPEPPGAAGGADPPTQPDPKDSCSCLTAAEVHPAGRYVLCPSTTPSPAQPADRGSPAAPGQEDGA
Assay: Measurement of an Axl inhibitory activity (LanthaScreen TR-FRET, in vitro test)
Type: biochemical
Method: Biological Example 1: Measurement of an Axl Inhibitory Activity (In Vitro Test)
An Axl enzyme inhibitory activity was measured by using LanthaScreen (registered trademark) system (Invitrogen) based on the attached instruction. The reagents used are shown below.
Reaction buffer solution: a solution containing 50 mmol/L HEPES (pH7.5), 0.01% Brij35, 10 mmol/L MgCl2 and 1 mmol/L EGTA was prepared by using purified water.
Test substance solution: a solution containing a test compound of 5-fold concentration with respect to the final concentration was prepared by 20-fold diluting a DMSO solution of test compound of each concentration with the reaction buffer solution.
Enzyme solution: a solution containing 400 ng/mL Axl enzyme was prepared by using the reaction buffer solution.
Substrate solution: a solution containing 45 μmmol/L ATP and 500 nmmol/L Fluorescein-Poly GT (Invitrogen) was prepared by using the reaction buffer solution.
Detection solution: a solution containing 20 mM EDTA and 4 nM PY20 (Invitrogen) was prepared by using Dilution B (Invitrogen).
A 10 mmol/L DMSO solution of the test compound was dispensed into a 96-well plate (Nunc), and, furthermore, a 3-fold dilution series was prepared using DMSO. In each well of the 96-well plate for measurement, 5 μL each of the reaction buffer solution containing DMSO was added to a Blank group and a medium group, and 5 μL of the test substance solution was added to the test substance group, respectively. Next, 10 μL/well of the reaction buffer solution was added to the Blank group, and 10 μL/well each of the enzyme solution was added to the medium group and the test compound group, followed by stirring at room temperature for 10 min. After the completion of stirring, 10 μL each of the substrate solution was added into each well, followed by stirring at room temperature with light shielded for one hour. After the completion of reaction, 25 μL each of the detection solution was added to each well, and stood still at room temperature with light shielded for 30 min. After standing sill, fluorescence intensity at 520 nm and 495 nm at the time of irradiation with exciting light of 340 nm was measured by using Analyst GT (Molecular Devices). The phosphorylation of the artificial substrate was quantified by Time-resolved Fluorescence Resonance Energy Transfer (TR-FRET). TR-FRET ratio was calculated by dividing 520 nm fluorescence signal by 495 nm fluorescence signal for each well, and the inhibition rate (%) in the test compound group was calculated based on the following mathematical formula. Inhibition rate (%)=[1−(TR-FRET ratio of test compound group−A)/(B−A)×100 [Math. 1] A: average value of TR-FRET ratios of Blank group B: average value of TR-FRET ratios of medium group
Values of 50% inhibition rate (IC50 values) of the test compound were calculated from the inhibition curve based on the inhibition rate of the test compounds in each concentration.

| IC50 | Compound |
| --- | --- |
| 5.6 nM | COc1cc2nccc(Oc3ccc(NC(=O)c4cc5c(n(-c6ccccc6)c4=O)CC(C)(C)CC5=O)nc3)c2cc1OC [Example 5(1), N-{5-[(6,7-dimethoxy-4-quinolinyl)oxy]-2-pyridinyl}-7,7-dimethyl-2,5-dioxo-1-phenyl-1,2,5,6,7,8-hexahydro-3-quinolinecarboxamide] |
| 4.4 nM | O=C1CCCc2c1cc(C(=O)Nc1ccc(Oc3ccnc4cc(OCCCN5CCOCC5)ccc34)cn1)c(=O)n2-c1ccccc1 [Example 17(2), N-[5-({7-[3-(4-morpholinyl)propoxy]-4-quinolinyl}oxy)-2-pyridinyl]2,5-dioxo-1-phenyl-1,2,5,6,7,8-hexahydro-3-quinolinecarboxamide] |
| 1.1 nM | COc1cc2nccc(Oc3ccc(NC(=O)c4cc5c(n(-c6ccccc6)c4=O)CCCC5=O)c(C)c3)c2cc1OC [Example 23(2), N-{4-[(6,7-dimethoxy-4-quinolinyl)oxy]-2-methylphenyl}-2,5-dioxo-1-phenyl-1,2,5,6,7,8-hexahydro-3-quinolinecarboxamide] |

| Compound | IC50 |
| --- | --- |
| COc1cc2nccc(Oc3ccc(NC(=O)c4cc5c(n(-c6ccccc6)c4=O)CCCC5=O)nc3)c2cc1OC [Example 5, N-{5-[(6,7-dimethoxy-4-quinolinyl)oxy]-2-pyridinyl}-2,5-dioxo-1-phenyl-1,2,5,6,7,8-hexahydro-3-quinolinecarboxamide] | 2.2 nM |
